# Laboratory results: ChEMBL document CHEMBL1201862, “PubChem BioAssay data set” (2004)
#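 Five compound concentrations were applied to cells in 96-well plates for 48 hours; endpoints were derived by simple linear interpolation of the resulting dose-response curve. GI50: concentration for 50% inhibition of growth.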 Calls of active or inactive are those of the source. Cut-off read from the data, not from the text of the source: active = GI50 up to about 1.1 µM and inactive = higher.
# Experiments:
# Assay in all cases: NCI tumour cell line growth inhibition, 48 h
# OVCAR-4 = test system: OVCAR-4
# NCI/ADR-RES = test system: NCI/ADR-RES
# NCI-H23 = test system: NCI-H23
# MOLT-4 = test system: MOLT-4
# SK-OV-3 = test system: SK-OV-3
# BT-549 = test system: BT-549
# EKVX = test system: EKVX
# DU-145 = test system: DU-145
# OVCAR-3 = test system: OVCAR-3
# SR = test system: SR
# SNB-19 = test system: SNB-19
# SW-620 = test system: SW-620
# MDA-MB-231 = test system: MDA-MB-231
# K562 = test system: K562
# SF-295 = test system: SF-295
# NCI-H460 = test system: NCI-H460
# 786-0 = test system: 786-0
# SK-MEL-5 = test system: SK-MEL-5
# PC-3 = test system: PC-3
# MDA-MB-435 = test system: MDA-MB-435
Structure (SMILES),GI50 (OVCAR-4),GI50 (NCI/ADR-RES),GI50 (NCI-H23),GI50 (MOLT-4),GI50 (SK-OV-3),GI50 (BT-549),GI50 (EKVX),GI50 (DU-145),GI50 (OVCAR-3),GI50 (SR),GI50 (SNB-19),GI50 (SW-620),GI50 (MDA-MB-231),GI50 (K562),GI50 (SF-295),GI50 (NCI-H460),GI50 (786-0),GI50 (SK-MEL-5),GI50 (PC-3),GI50 (MDA-MB-435)
CC1=C(C(=O)OCc2ccncc2)C(C2=C(C)SCCS2)C(C(=O)OCc2ccncc2)=C(C)N1,38.3 µM (inactive),37.4 µM (inactive),24.2 µM (inactive),15.3 µM (inactive),26.6 µM (inactive),20.4 µM (inactive),21.2 µM (inactive),29.4 µM (inactive),19.3 µM (inactive),33.6 µM (inactive),29.1 µM (inactive),25.6 µM (inactive),26.9 µM (inactive),20 µM (inactive),18.2 µM (inactive),23.4 µM (inactive),28.6 µM (inactive),15.3 µM (inactive),20.9 µM (inactive),17.8 µM (inactive)
O[C@H]1[C@H]2c3cc4c(cc3CN3CCC(=C[C@@H]1O)[C@H]23)OCO4 [LYCORINE],1.34 µM (inactive),2.31 µM (inactive),2.42 µM (inactive),1.29 µM (inactive),1.84 µM (inactive),1.66 µM (inactive),2.39 µM (inactive),1.32 µM (inactive),2.47 µM (inactive),1.47 µM (inactive),2.11 µM (inactive),2.61 µM (inactive),1.65 µM (inactive),1.2 µM (inactive),2.69 µM (inactive),1.26 µM (inactive),3.1 µM (inactive),1.42 µM (inactive),1.45 µM (inactive),2.07 µM (inactive)
O=C1C(/N=N/c2ccc(-c3nc4ccccc4o3)cc2)NC(=S)N1c1ccccc1 (stereo not given),82 µM (inactive),73.5 µM (inactive),> 100 µM (inactive),34.7 µM (inactive),> 100 µM (inactive),> 100 µM (inactive),49.3 µM (inactive),37.4 µM (inactive),23.6 µM (inactive),28.5 µM (inactive),> 100 µM (inactive),32.3 µM (inactive),> 100 µM (inactive),67.8 µM (inactive),> 100 µM (inactive),70.3 µM (inactive),> 100 µM (inactive),49.1 µM (inactive),> 100 µM (inactive),60.7 µM (inactive)
COc1cccc(/C=C\c2ccc(O)cc2)c1,23.7 µM (inactive),6.12 µM (inactive),15.1 µM (inactive),3.6 µM (inactive),36.5 µM (inactive),17.5 µM (inactive),30.2 µM (inactive),13.1 µM (inactive),16.8 µM (inactive),2.72 µM (inactive),29.7 µM (inactive),15.2 µM (inactive),30.1 µM (inactive),8.77 µM (inactive),28.6 µM (inactive),4.1 µM (inactive),10.4 µM (inactive),17.6 µM (inactive),11.7 µM (inactive),19.5 µM (inactive)
CCN(C(C)=O)c1cnc(/C=N/NC(N)=S)c2ccccc12,9.31 µM (inactive),10.6 µM (inactive),3.36 µM (inactive),1.96 µM (inactive),3.65 µM (inactive),5 µM (inactive),4.29 µM (inactive),2.06 µM (inactive),2.58 µM (inactive),0.631 µM (active),3.49 µM (inactive),5.68 µM (inactive),18.6 µM (inactive),4 µM (inactive),3.14 µM (inactive),1.5 µM (inactive),1.61 µM (inactive),2.84 µM (inactive),4.15 µM (inactive),4.42 µM (inactive)
Cc1cn(C2CCC(CO)(CF)O2)c(=O)[nH]c1=O (stereo not given),> 100 µM (inactive),> 100 µM (inactive),> 100 µM (inactive),> 100 µM (inactive),> 100 µM (inactive),> 100 µM (inactive),> 100 µM (inactive),> 100 µM (inactive),> 100 µM (inactive),> 100 µM (inactive),> 100 µM (inactive),> 100 µM (inactive),> 100 µM (inactive),> 100 µM (inactive),> 100 µM (inactive),> 100 µM (inactive),> 100 µM (inactive),> 100 µM (inactive),> 100 µM (inactive),> 100 µM (inactive)
CC(C)(C)OC(=O)N(CCNS(=O)(=O)c1cccc2cnccc12)CCC(=O)ON1C(=O)CCC1=O,> 100 µM (inactive),> 100 µM (inactive),> 100 µM (inactive),> 100 µM (inactive),> 100 µM (inactive),> 100 µM (inactive),6.52 µM (inactive),> 100 µM (inactive),> 100 µM (inactive),> 100 µM (inactive),> 100 µM (inactive),> 100 µM (inactive),> 100 µM (inactive),> 100 µM (inactive),> 100 µM (inactive),51.9 µM (inactive),> 100 µM (inactive),> 100 µM (inactive),> 100 µM (inactive),> 100 µM (inactive)
C=C(Cl)C(C)(Cl)CCC(Cl)C(C)(C)Cl (stereo not given),53.7 µM (inactive),> 100 µM (inactive),83.2 µM (inactive),23.9 µM (inactive),> 100 µM (inactive),> 100 µM (inactive),> 100 µM (inactive),> 100 µM (inactive),46 µM (inactive),23.8 µM (inactive),> 100 µM (inactive),51.6 µM (inactive),32.7 µM (inactive),33.7 µM (inactive),> 100 µM (inactive),78.9 µM (inactive),> 100 µM (inactive),50.5 µM (inactive),54.7 µM (inactive),62.2 µM (inactive)
Nc1cccc2nsnc12,> 100 µM (inactive),> 100 µM (inactive),> 100 µM (inactive),12.9 µM (inactive),> 100 µM (inactive),> 100 µM (inactive),> 91.8 µM (inactive),> 100 µM (inactive),> 94.8 µM (inactive),4.2 µM (inactive),> 100 µM (inactive),> 100 µM (inactive),> 100 µM (inactive),16.7 µM (inactive),> 88.7 µM (inactive),> 84.1 µM (inactive),> 100 µM (inactive),36.3 µM (inactive),> 100 µM (inactive),31.6 µM (inactive)
C=CC(=O)N1C/C(=C\c2ccc(Cl)cc2)C(=O)/C(=C/c2ccc(Cl)cc2)C1,0.286 µM (active),0.436 µM (active),0.492 µM (active),0.3 µM (active),0.656 µM (active),0.329 µM (active),0.885 µM (active),0.813 µM (active),0.31 µM (active),0.05 µM (active),1 µM (active),0.15 µM (active),0.255 µM (active),0.265 µM (active),0.288 µM (active),0.468 µM (active),0.21 µM (active),1.36 µM (inactive),0.255 µM (active),0.262 µM (active)
